According to patent publication US20260274857A1, “CRYSTAL OF DIHYDROPYRIDINONE DERIVATIVE OR SOLVATE THEREOF” (Shionogi & Co., Ltd., priority 2022, published 2026):
Values belong to the compound of their own block, whether it stands above or below them.

Columns and labels:
[1] = Moisture adsorption/desorption isotherm measurement (DVS); assay type: physicochemical
Text: The moisture adsorption/desorption isotherm measurement is a measurement method for measuring the adsorption and desorption behavior of moisture by measuring a weight change in a solid as a measurement target under each relative humidity condition.
As a basic measurement method, based on the dry weight at 0% RH (relative humidity 0%), the relative humidity is increased every 5% or 10%, and after the weight is stabilized at each relative humidity, the amount of adsorbed water can be determined from the weight increase from the reference value. Similarly, the desorption amount of water can be measured by decreasing the relative humidity every 5% or 10% from 100% RH or 95% RH.
By plotting the value of the weight change at each relative humidity, an adsorption/desorption isotherm can be obtained.
Sorption and desorption of adhesion water and crystal water are affected by particle size, crystallinity, crystal habit, and the like, so that the measurement results may slightly change.
The crystals and amorphous substances obtained in each Example were weighed in an aluminum pan, and allowed to stand at 25° C. and a relative humidity of 0%. The measurement was started after the compound was sufficiently dried and the weight was stabilized, and the weight when the relative humidity changed from 0% to 95% by 5% was recorded. Next, the weight when the relative humidity changed from 95% to 0% by 5% was recorded.
Device: DVS Advantage manufactured by Surface Measurement Systems

[2] = Solid stability test: storage stability (amount of analogous substance by HPLC, appearance); assay type: physicochemical
Protocol: For the solid stability of the crystal of the compound represented by Formula (I) obtained in Example 1 and the crystal of the compound represented by Formula (II) obtained in Example 16, the chemical stability under temperature, temperature and humidity conditions, and light irradiation was evaluated. The proportion (%) of the analogous substance produced by an HPLC method and the change in appearance were evaluated.
About 10 mg of the crystal was accurately weighed in a 2 mL glass container with a polyethylene stopper. After the glass container was closed, the glass container was stored at 40° C. or 60° C. for 2 weeks, 1 month, 2 months, 3 months, or 6 months. A sample stored at 40° C. is referred to as a 40° C. hermetically sealed product, and a sample stored at 60° C. is referred to as a 60° C. hermetically sealed product. In a state where the glass container was opened, the glass container was stored at a relative humidity of 75±5% at 40° C. or a relative humidity of 89±5% for 2 weeks, 1 month, 2 months, 3 months or 6 months, or in the presence of silica gel at 40° C. for 1 month, 2 months, 3 months or 6 months. A sample stored at 40° C. and a relative humidity of 75±5% or 89±5% is referred to as a 40° C. and 75% relative humidity (also referred to as 40±2° C./75±5% RH) or 40° C. and 89% relative humidity (also referred to as 40±2° C./89% RH) stored product, and a sample stored in the presence of silica gel at 40° C. is referred to as a 40° C. stored product. The −40° C. hermetically sealed product was used as a standard product.
The amount of the analogous substance was measured by an area percentage method by the HPLC method under the following conditions.
HPLC Conditions 1 were used for the crystal and amorphous substance of the compound represented by Formula (I) obtained in Example 1, and HPLC conditions 2 were used for the crystal of the compound represented by Formula (II) obtained in Example 16.
• Detector: ultraviolet absorptiometer (measurement wavelength: 260 nm) • Column: YMC-Triart C18 ExRS, S-1.9 μm, 3.0×100 mm • Column temperature: constant temperature at near 40° C. • Mobile phase A: 0.1% formic acid aqueous solution • Mobile phase B: acetonitrile • Flow rate: about 0.6 mL/min • Injection amount: 3 μL • Sample cooler temperature: about 6° C. • Feed of mobile phase: The mixing ratio of mobile phase A and mobile phase B was changed as shown in Table 18 to control concentration gradient.
Column: Cortecs (2.7 μm 3.0×100 mm)
Column temperature: 40° C.
UV detection wavelength: 254 nm

Moisture adsorption amount (%) ([1]; relative humidity 0.0%): 0.001%
Moisture desorption amount (%) ([1]; relative humidity 0.0%): −0.004%
Moisture adsorption amount (%) ([1]; relative humidity 5.0%): 0.242%
Moisture desorption amount (%) ([1]; relative humidity 5.0%): 0.453%
Moisture adsorption amount (%) ([1]; relative humidity 10.0%): 0.353%
Moisture desorption amount (%) ([1]; relative humidity 10.0%): 0.715%
Moisture adsorption amount (%) ([1]; relative humidity 15.0%): 0.457%
Moisture desorption amount (%) ([1]; relative humidity 15.0%): 0.916%
Moisture adsorption amount (%) ([1]; relative humidity 20.0%): 0.556%
Moisture desorption amount (%) ([1]; relative humidity 20.0%): 1.067%
Moisture adsorption amount (%) ([1]; relative humidity 25.0%): 0.651%
Moisture desorption amount (%) ([1]; relative humidity 25.0%): 1.194%
Moisture adsorption amount (%) ([1]; relative humidity 30.0%): 0.741%
Moisture desorption amount (%) ([1]; relative humidity 30.0%): 1.311%
Moisture adsorption amount (%) ([1]; relative humidity 35.0%): 0.831%
Moisture desorption amount (%) ([1]; relative humidity 35.0%): 1.412%
Moisture adsorption amount (%) ([1]; relative humidity 40.0%): 0.922%
Moisture desorption amount (%) ([1]; relative humidity 40.0%): 1.510%
Moisture adsorption amount (%) ([1]; relative humidity 45.0%): 1.003%
Moisture desorption amount (%) ([1]; relative humidity 45.0%): 1.601%
Moisture adsorption amount (%) ([1]; relative humidity 50.0%): 1.096%
Moisture desorption amount (%) ([1]; relative humidity 50.0%): 1.688%
Moisture adsorption amount (%) ([1]; relative humidity 55.0%): 1.186%
Moisture desorption amount (%) ([1]; relative humidity 55.0%): 1.776%
Moisture adsorption amount (%) ([1]; relative humidity 60.0%): 1.285%
Moisture desorption amount (%) ([1]; relative humidity 60.0%): 1.870%
Moisture adsorption amount (%) ([1]; relative humidity 65.0%): 1.382%
Moisture desorption amount (%) ([1]; relative humidity 65.0%): 1.964%
Moisture adsorption amount (%) ([1]; relative humidity 70.0%): 1.498%
Moisture desorption amount (%) ([1]; relative humidity 70.0%): 2.062%
Moisture adsorption amount (%) ([1]; relative humidity 75.0%): 1.612%
Moisture desorption amount (%) ([1]; relative humidity 75.0%): 2.166%
Moisture adsorption amount (%) ([1]; relative humidity 80.0%): 1.744%
Moisture desorption amount (%) ([1]; relative humidity 80.0%): 2.278%
Moisture adsorption amount (%) ([1]; relative humidity 85.0%): 1.915%
Moisture desorption amount (%) ([1]; relative humidity 85.0%): 2.398%
Moisture adsorption amount (%) ([1]; relative humidity 90.0%): 2.168%
Moisture desorption amount (%) ([1]; relative humidity 90.0%): 2.522%
Moisture adsorption amount (%) ([1]; relative humidity 95.0%): 2.597%
Moisture desorption amount (%) ([1]; relative humidity 95.0%): 2.597%
SMILES: CS(=O)(=O)CC(=O)Nc1c2c(nn1CCCOC(F)(F)F)CC1(CCOc3cc(OCC(F)(F)F)ccc31)NC2=O (stereo not shown)

Amount (%) of total analogous substance ([2]; 40° C. Relative humidity 75%, 2 months): 0.27%
Amount (%) of total analogous substance ([2]; 40° C. hermetically sealed, 1 month): 0.22%
Amount (%) of total analogous substance ([2]; 40° C. hermetically sealed, 2 months): 0.23%
Amount (%) of total analogous substance ([2]; 40° C. hermetically sealed, 2 weeks): 0.22%
Amount (%) of total analogous substance ([2]; 60° C. hermetically sealed, 1 month): 0.24%
Amount (%) of total analogous substance ([2]; 60° C. hermetically sealed, 2 weeks): 0.23%
Amount (%) of total analogous substance ([2]; (Standard product) −40° C. hermetically sealed, 1 month): 0.22%
Amount (%) of total analogous substance ([2]; (Standard product) −40° C. hermetically sealed, 2 months): 0.22%
SMILES: Cc1ccc(-n2nc3c(c2NC(=O)CS(C)(=O)=O)C(=O)NC2(CCOc4cc(F)cc(F)c42)C3)nc1 (stereo not shown)

difference in water content between 0% RH and 95% RH ([1]; DVS, 25° C.): about 2.6%
SMILES: CS(=O)(=O)CC(=O)Nc1c2c(nn1CCCOC(F)(F)F)C[C@@]1(CCOc3cc(OCC(F)(F)F)ccc31)NC2=O [amorphous substance of the compound represented by Formula (]
